From patent publication US8252899B2, “Methods and compositions for obtaining high-resolution crystals of membrane proteins” (The Scripps Research Institute, priority 2007, dated 2012)

What was measured:
[1] = target: β2AR Val114^3.33 to alanine mutant (Homo sapiens, UniProt P07550, V114A); conditions: Chelikani et al. 2007; cited from earlier work
[2] = tested on: β2AR-T4L; conditions: for λmax ± SD for β2AR-T4L: bimane emission, excitation 350 nm, saturating ligand; for λmax ± SD for β2AR-T4L / Intensity at λmax Ligand/Intensity at λmax none, β2AR-T4L: 15 min incubation; for Intensity at λmax Ligand/Intensity at λmax none, β2AR-T4L: bimane fluorescence, ratio to no-ligand control
[3] = tested on: β2AR-T4L; assay: Saturation binding of [3H]DHA to membranes from Sf9 cells expressing β2AR-T4L; design: species or system human
Description: FIG. 15. Affinity curves for adrenergic ligands binding to β2AR-T4L and wildtype β2AR. […] Binding experiments on membranes isolated from Sf9 insect cells expressing the receptors were performed as described above.
Membrane preparation from baculovirus-infected Sf9 cells was performed as described previously (Swaminath, et al., Mol Pharmacol 61, 65 (2002)). For each binding reaction, membranes containing 0.7 μg total membrane protein were used. Saturation binding of [^3H]-dihydroalprenolol (DHA) was measured by incubating membranes resuspended in 500 μl binding buffer (75 mM Tris, 12.5 mM MgCl2, 1 mM EDTA, pH 7.4, supplemented with 0.4 mg/ml BSA) with 12 different concentrations of [^3H]DHA (Perkin Elmer) between 20 pM and 10 nM. After 1 h incubation with shaking at 230 rpm, membranes were filtered from the binding reactions with a Brandel harvester, washed with binding buffer, and measured for bound [^3H]DHA with a Beckman LS6000 scintillation counter. […] For competition binding, membranes resuspended in 500 μl binding buffer were incubated with 0.5 nM [^3H]DHA plus increasing concentrations of the competing ligand (all compounds were purchased from Sigma). […] Each data point in the curves in FIGS. 2A and S1 represents the mean of three separate experiments, each done in triplicate. Binding data were analyzed by nonlinear regression analysis using Graphpad Prism.

[4] = target: wild-type β2AR (Homo sapiens, UniProt P07550); assay: Saturation binding of [3H]DHA to membranes from Sf9 cells expressing wild-type β2AR

SMILES	ligand-induced change of bimane fluorescence (in words), β2AR-T4L [2]	λmax ± SD for β2AR-T4L [2] [nm]	Intensity at λmax Ligand/Intensity at λmax none, β2AR-T4L [2]	other results
CNC[C@H](O)c1ccc(O)c(O)c1 [(−)-epinephrine]	–	–	–	lowering of affinity by Val114 to alanine mutation [1]: 300 fold
CC(C)NC[C@H](O)c1ccc(O)c(O)c1 [(−)-isoproteronol, (−)-isoproterenol]	qualitatively similar decrease in intensity and rightward shift in λmax	455 ± 2	0.824 ± 0.006	–
CCCc1ccccc1OCC(O)CNC(C)C (centres unmarked) [[^3H]DHA, [^3H]-dihydroalprenolol]	–	–	–	affinity for β2AR-T4L relative to wild-type β2AR (saturation binding) [3]: wild-type affinity; Kd ([3]; saturation binding, β2AR-T4L, Sf9 membranes, read-out: Kd ± SE): 0.18 ± 0.016 nM; Bmax [4]: 30.0 ± 0.5 pmol/mg; Kd ([4]; read-out: Kd ± SE): 0.161 ± 0.012 nM
CC(C)(C)NCC(O)c1ccc(O)c(CO)c1 (centres unmarked) [salbutamol]	larger responses	449 ± 1	0.928 ± 0.009	–
